Data taken from publication PMC8896685 (PLoS ONE, 2022).
Numbered stars: 1 amine (or outer) side, 2 acyl side, 3 side chain; on linkers, the order of the positions; unused ones are H or OH. Square brackets hold non-standard residues; d marks the D form. Side chains are listed from the residue outwards. Peptide text beside a SMILES is read from it. * marks the point of attachment. C18 diacid = O=C(O)CCCCCCCCCCCCCCCCC(=O)*; γGlu = O=C(O)[C@H](CCC(=O)[*:2])N[*:1]; Desaminohistidyl = O=C(CCc1c[nH]cn1)*; Ac4c = NC1(C(=O)O)CCC1; AEEA = NCCOCCOCC(=O)O; Aib = CC(C)(N)C(=O)O

How the values were obtained:
[1] = in vivo; settings: rat, iv
Procedure: Compound exposure was measured by Luminescence Oxygen Channeling Immunoassay (LOCI). […] The three reactants were combined with the analyte and formed a two-sited immuno-complex. Illumination of the complex released singlet oxygen […] from the donor beads. They were channeled into the acceptor beads and triggered a chemiluminescence response which was measured in an EnVision plate reader (PerkinElmer). The amount of light was proportional to the concentration of the analyte. As calibrators, a dilution line of the relevant analyte in rat/mouse plasma was included.
At t=0, 5 min, 10 min, 30 min, 2 h, 4 h, 8 h, 12 h, 24 h, 32 h, 48 h, 56 h, and 72 h post dosing, plasma was sampled from the sublingual plexus for analysis of plasma exposure measured by LOCI.
Plasma concentration-time profiles were analysed using non-compartmental analysis (NCA) using Phoenix WinNonlin Professional 6.3 (Pharsight, Mountain View, CA, US). Calculations were performed using full concentration-time profile values or sparse sampling concentration-time values as appropriate.

[2] = biological target: T1, Human GCGR (Homo sapiens, UniProt P47871); test: Receptor binding, SPA competitive binding assay; settings: SPA competitive binding on BHK cell membranes, [125I]-glucagon tracer, 1% species specific plasma, 2 h 30°C; value (95% CI)
T1 construct: a plasmid encoding either the glucagon receptor or the GLP-1 receptor from the relevant species; expressed in transfected cells
T1 sequence (P47871 26-477): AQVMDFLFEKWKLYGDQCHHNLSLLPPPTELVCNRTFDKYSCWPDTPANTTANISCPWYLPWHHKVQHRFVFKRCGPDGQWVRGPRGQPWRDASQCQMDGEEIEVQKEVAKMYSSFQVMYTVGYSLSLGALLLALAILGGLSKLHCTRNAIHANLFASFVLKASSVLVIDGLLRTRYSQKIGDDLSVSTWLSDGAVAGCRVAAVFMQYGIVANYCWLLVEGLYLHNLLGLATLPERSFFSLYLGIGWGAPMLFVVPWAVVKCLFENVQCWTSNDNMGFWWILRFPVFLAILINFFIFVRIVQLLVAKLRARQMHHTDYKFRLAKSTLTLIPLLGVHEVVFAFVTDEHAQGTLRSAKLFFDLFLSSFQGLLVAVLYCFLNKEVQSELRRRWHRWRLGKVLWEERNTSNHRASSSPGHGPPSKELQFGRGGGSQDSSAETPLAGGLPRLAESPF
Procedure: (§1) The binding assay was performed on cell membranes in the presence of 1% (v/v) species-specific heparin-treated pooled plasma (Bioreclamation IVT, Westbury, NY) diluted in assay buffer (50 mM HEPES supplemented with 5 mM EGTA, 5 mM MgCl2, and 0.005% (v/v) Tween 20, pH7.4). […] Cells stably expressing an individual receptor of interest were grown at 5% CO2, 37°C in DMEM (supplemented with 10% FCS, 0.5 mg/ml G418 and 0.3 mg/ml hygromycin). Membrane preparations were made from cells harvested at approximately 80% confluence, washed and homogenized in 20 mM HEPES with 0.1 mM EDTA, pH 7.4. Protein concentration was determined, and the membranes were stored at -80°C until use. The membrane binding assay was performed in a 96-well OptiPlate (PerkinElmer) in a total volume of 200 μl. Test compounds were dissolved in 80% DMSO and further diluted in assay buffer. 50 μl of diluted plasma was added to the assay plate wells followed by addition of test compounds (25 μl), cell membranes (50 μl, 0.06 mg/ml), SPA beads (20 mg/ml in assay buffer) and radioligand (60,000 cpm/well, corresponding to 0.06 nM; 2200 Ci/mmol. Each assay plate was incubated for 2 h at 30°C, centrifuged at 1500 rpm for 10 minutes and counted in a TopCount NXT instrument (PerkinElmer).
(§2) For the receptor binding assays, logIC50 values were calculated using non-linear regression analysis. The error estimation was reported as the 95% confidence interval. […] The calculations were performed in GraphPad Prism 6.4 (GraphPad, San Diego, CA) and error estimation was expressed as the 95% confidence interval. […] Averages, error estimation, ratios and plasma shifts were all calculated on logIC50 or logEC50 values and transformed to the anti-log values for reporting purposes.

[3] = biological target: Human GLP-1R (Homo sapiens, UniProt P43220); test: Receptor binding, SPA competitive binding assay; settings: SPA competitive binding on BHK cell membranes, [125I]-GLP-1(7–36)-NH2 tracer, 1% species specific plasma, 2 h 30°C; value (95% CI)
Sequence of Human GLP-1R (P43220 24-463): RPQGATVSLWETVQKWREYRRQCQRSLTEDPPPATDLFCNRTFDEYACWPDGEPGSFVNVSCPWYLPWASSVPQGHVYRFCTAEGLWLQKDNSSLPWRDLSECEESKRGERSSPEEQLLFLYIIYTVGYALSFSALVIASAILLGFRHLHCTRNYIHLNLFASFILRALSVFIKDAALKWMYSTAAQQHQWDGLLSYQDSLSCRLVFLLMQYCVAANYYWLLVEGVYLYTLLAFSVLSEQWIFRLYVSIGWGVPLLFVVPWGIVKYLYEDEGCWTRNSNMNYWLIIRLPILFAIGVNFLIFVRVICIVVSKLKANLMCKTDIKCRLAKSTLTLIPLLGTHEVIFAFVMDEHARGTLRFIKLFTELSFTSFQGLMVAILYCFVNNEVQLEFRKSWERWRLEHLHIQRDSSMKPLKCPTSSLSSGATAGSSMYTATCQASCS
Procedure: as §1, §2

[4] = biological target: T2, Rat GLP-1R (Rattus norvegicus, UniProt P32301); test: Receptor binding, SPA competitive binding assay; settings: SPA competitive binding on BHK cell membranes, [125I]-GLP-1(7–36)-NH2 tracer, 1% species specific plasma, 2 h 30°C; value (95% CI)
T2 construct: a plasmid encoding either the glucagon receptor or the GLP-1 receptor from the relevant species; expressed in transfected cells
T2 sequence (P32301 22-463): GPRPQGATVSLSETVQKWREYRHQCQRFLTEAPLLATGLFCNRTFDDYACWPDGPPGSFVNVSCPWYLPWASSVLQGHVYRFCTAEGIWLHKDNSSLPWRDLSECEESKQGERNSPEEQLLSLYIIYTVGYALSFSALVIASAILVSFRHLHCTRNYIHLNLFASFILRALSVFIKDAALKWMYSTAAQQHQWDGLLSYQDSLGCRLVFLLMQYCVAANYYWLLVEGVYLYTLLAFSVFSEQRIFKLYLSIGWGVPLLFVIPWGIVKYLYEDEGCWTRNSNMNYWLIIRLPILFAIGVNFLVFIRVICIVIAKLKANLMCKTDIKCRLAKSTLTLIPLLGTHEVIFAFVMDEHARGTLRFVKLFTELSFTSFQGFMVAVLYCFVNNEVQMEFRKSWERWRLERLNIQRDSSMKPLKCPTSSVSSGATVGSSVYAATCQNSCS
Procedure: as §1, §2

[5] = biological target: T3, Mouse GLP-1R (Mus musculus, UniProt O35659); test: Receptor binding, SPA competitive binding assay; settings: SPA competitive binding on BHK cell membranes, [125I]-GLP-1(7–36)-NH2 tracer, 1% species specific plasma, 2 h 30°C; value (95% CI)
T3 construct: a plasmid encoding either the glucagon receptor or the GLP-1 receptor from the relevant species; expressed in transfected cells
T3 sequence (O35659 22-463): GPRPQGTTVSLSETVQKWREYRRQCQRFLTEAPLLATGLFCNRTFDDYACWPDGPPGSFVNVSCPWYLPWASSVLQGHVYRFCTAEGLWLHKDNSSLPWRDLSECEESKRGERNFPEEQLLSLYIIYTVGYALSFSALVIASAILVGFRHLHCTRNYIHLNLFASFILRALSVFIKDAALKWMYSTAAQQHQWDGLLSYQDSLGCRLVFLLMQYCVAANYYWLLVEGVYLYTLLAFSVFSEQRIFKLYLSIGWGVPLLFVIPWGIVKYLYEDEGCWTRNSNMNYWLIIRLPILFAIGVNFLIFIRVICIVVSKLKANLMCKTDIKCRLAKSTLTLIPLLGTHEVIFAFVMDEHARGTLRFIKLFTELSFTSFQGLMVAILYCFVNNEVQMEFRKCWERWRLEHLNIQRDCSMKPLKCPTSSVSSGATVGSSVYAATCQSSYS
Procedure: as §1, §2

SMILES	half-life [1] [h]	IC50 [2] [nM]	IC50 [3] [nM]	IC50 [4] [nM]	IC50 [5] [nM]
CC[C@H](C)[C@H](NC(=O)[C@H](Cc1ccccc1)NC(=O)[C@H](CCC(=O)O)NC(=O)[C@H](CCCNC(=N)N)NC(=O)[C@H](C)NC(=O)[C@H](C)NC(=O)[C@H](CCC(N)=O)NC(=O)[C@H](CCC(=O)O)NC(=O)[C@H](CCC(=O)O)NC(=O)[C@H](CC(C)C)NC(=O)[C@H](Cc1ccc(O)cc1)NC(=O)[C@H](CCCCN)NC(=O)[C@H](CO)NC(=O)[C@@H](NC(=O)[C@H](CC(=O)O)NC(=O)[C@H](CO)NC(=O)[C@@H](NC(=O)[C@H](Cc1ccccc1)NC(=O)[C@@H](NC(=O)CNC(=O)[C@H](Cc1c[nH]cn1)NC(=O)C(C)(C)NC(=O)CCc1c[nH]cn1)[C@@H](C)O)[C@@H](C)O)C(C)C)C(=O)N[C@@H](C)C(=O)N[C@@H](Cc1c[nH]c2ccccc12)C(=O)N[C@@H](CC(C)C)C(=O)N[C@@H](CC(C)C)C(=O)N[C@@H](CCCCNC(=O)COCCOCCNC(=O)COCCOCCNC(=O)CC[C@H](NC(=O)CC[C@H](NC(=O)CCCCCCCCCCCCCCCCC(=O)O)C(=O)O)C(=O)O)C(=O)N[C@H](C(N)=O)[C@@H](C)O [NN1359] (Desaminohistidyl-[Aib]HGTFTSDVSKYLEEQAAREFIAWLLK([AEEA-AEEA-γGlu-γGlu-C18 diacid])T-NH2)	11	7.54	0.84	2.06	0.37
CC(C)C[C@H](NC(=O)[C@H](CC(=O)O)NC(=O)[C@H](CC(C)C)NC(=O)[C@H](Cc1ccc(O)cc1)NC(=O)[C@H](CCCCN)NC(=O)[C@H](CO)NC(=O)[C@H](CC(C)C)NC(=O)[C@H](CC(=O)O)NC(=O)[C@H](CO)NC(=O)[C@@H](NC(=O)[C@H](Cc1ccccc1)NC(=O)[C@@H](NC(=O)CNC(=O)[C@H](CCC(N)=O)NC(=O)C1(NC(=O)[C@@H](N)Cc2c[nH]cn2)CCC1)[C@@H](C)O)[C@@H](C)O)C(=O)N[C@@H](CCCNC(=N)N)C(=O)N[C@@H](CCCNC(=N)N)C(=O)N[C@@H](C)C(=O)N[C@@H](CCCNC(=N)N)C(=O)N[C@@H](CC(=O)O)C(=O)N[C@@H](Cc1ccccc1)C(=O)N[C@H](C(=O)N[C@@H](CCC(N)=O)C(=O)N[C@@H](Cc1c[nH]c2ccccc12)C(=O)N[C@@H](CC(C)C)C(=O)N[C@@H](CC(C)C)C(=O)N[C@@H](CCCCNC(=O)CC[C@H](NC(=O)CC[C@H](NC(=O)COCCOCCNC(=O)COCCOCCNC(=O)CC[C@H](NC(=O)CC[C@H](NC(=O)CCCCCCCCCCCCCCCCC(=O)O)C(=O)O)C(=O)O)C(=O)O)C(=O)O)C(=O)N[C@H](C(N)=O)[C@@H](C)O)C(C)C [NN1151] (H-H[Ac4c]QGTFTSDLSKYLDLRRARDFVQWLLK([γGlu-γGlu-AEEA-AEEA-γGlu-γGlu-C18 diacid])T-NH2)	4	0.81	1.52	1.72	1.87
